Laboratory results from patent publication US20260041653A1, “AN HDAC INHIBITOR FOR TREATING CANCER WITH A MODIFIED STK11 ACTIVITY OR EXPRESSION” (Tango Therapeutics, Inc., priority 2022, published 2026).
Where two headings read alike, the source gives them in different places.

Experiments:
A549 cells = assay: Nanostring PanCancer IO360 profiling of A549 cells; assay type: cell-based; settings: 96 hours; dose that increased H3K9Ac two-fold; vs vorinostat and domatinostat
Protocol: In this example, the gene expression changes between CoreDAC and other HDAC inhibitors was determined by Nanostring profiling.
Cells were harvested and Nanostring profiling using the PanCancer IO360 panel was performed on the three treatment groups (FIGS. 11A-C). The top three ranked gene ontology groups for each compound as determined from the Nanostring data in (FIGS. 11A-C top panel) were determined using the nSolver software (FIGS. 11A-C bottom panel).

CYP2B6 = CYP2B6 (Homo sapiens, UniProt P20813); assay: Metabolism by recombinant human CYP2B6; assay type: in vitro ADME; settings: read-out: terminal half life (T1/2), rh CYP2B6
Protocol: Drug metabolizing enzymes involved in the biotransformation of Compound I were investigated using human liver microsomes (HLM) and recombinant enzymes. Compound I was stable in HLMs (>93% remaining after 240 minutes of incubation with HLM protein concentration at 0.6 mg/ml). CYP selective inhibitor experiments were not performed due to lack of appreciable Compound I turnover.

[1] = PK/PD study, plasma concentrations in MC38 tumor-bearing mice; assay type: in vivo, C57BL/6 mice; settings: for free unbound exposure in plasma: based on 10.05% free fraction
Protocol: In a separate PK/PD study, MC38 tumor-bearing female C57BL/6 mice (12/group) were assigned to treatment groups with similar mean tumor volumes of approximately 430 mm^3 and treated with vehicle (5% N,N-dimethylacetamide [DMA]+30% polyethylene glycol [PEG] 400+65% of 30% 2-hydroxypropyl-beta-cyclodextrin [HP-β-CD] in water) or Compound I at 30, 100, and 300 mg/kg once daily (QD) for 2 days. […] Peripheral blood mononuclear cells (PBMC) and tumor samples were harvested at 2, 8, and 24 hours after last dose. The PBMC samples were processed for determination of mean florescent level of acetyl-histone H2B by flow cytometry. Tumor samples were processed for determination of protein levels of acetyl-histone H3 by Western blot.

[2] = Free fraction in mouse plasma; assay type: in vitro ADME; settings: C57BL/6 mouse plasma
[3] = Pharmacokinetics in beagle dogs; assay type: in vivo
Protocol: The PK of Compound I in beagle dogs was determined in plasma following single IV bolus and PO administration to non-naïve male and female beagle dogs. The vehicle used for IV was 20% wt/vol 2-hydroxypropyl β cyclodextrin (HPβCD), 1% vol/vol DMSO in saline, and PO was in 5% DMA, 30% PEG400 and 65% (30% HPβCD in water) (solution) or 0.5% MC (suspension). Plasma samples were collected from 3 animals/group at 0.083, 0.25, 0.5, 1, 3, 6, 9, 12, 24 and 48 hours after dosing.

HDAC1 = target: T1, HDAC1 (Homo sapiens, UniProt Q13547); assay: Cellular NanoBRET target engagement assay, HDAC1; assay type: cell-based; settings: in intact cells
T1 construct: expressed in transfected cells

[4] = system: CT26 parental tumor (KRAS G12D); assay: Anti-tumor efficacy in CT26 parental (wild-type) colon carcinoma model; assay type: in vivo, mouse
Protocol: (§1) An in vivo anti-tumor efficacy of combination treatment of Anti-PD1 and Compound I in a CT26 mouse model was evaluated. CT26 is a colon carcinoma cell line with an endogenous KRAS G12D mutation. The experiment was performed in the parental/wild type line and in a line engineered with an STK11 knock-out (CT26_STK11KO) resulting in an anti-PD1 resistant model with lower CD8+ T cell infiltration.
In each of the experiments, the animals (8/group) were divided into four groups. Group I was treated with a control antibody Anti-IgG2, group 2 was treated with Compound I 75 mg/kg, group 3 was treated with anti-PD1 antibody, and group 4 was treated with Compound I 75 mg/kg and anti-PD1 antibody. Tumor volume and survival was monitored over the course of treatment. For the CT26_STK11KO model, the tumor volume was plotted by individual animal (FIG. 15A) and by treatment group (FIG. 15B). Survival was plotted by treatment group (FIG. 15C).
For the CT26 parental model, the tumor volume was plotted by treatment group (FIG. 15D) and by individual animal for groups 1 and 4 (FIG. 15E).
as §1, with “anti-CTLA4” for “Anti-PD1”, “anti-CTLA4-resistant model.” for “anti-PD1 resistant model with lower CD8+ T cell infiltration.”
An in vivo anti-tumor efficacy of double combination treatment of Anti-CTLA4 and Compound I in a CT26 syngeneic model was performed. CT26 is a colon carcinoma cell line. The experiment was also performed with an STK11-null CT26 model, this model is CTLA4 resistant.
There were 8 mice per group. Group I was treated with a control antibody Anti-IgG2, group 2 was treated with Compound I 75 mg/kg, group 3 was treated with anti-CTLA4 antibody, and group 4 was treated with Compound I 75 mg/kg and anti-CTLA4 antibody. Tumor volume was monitored over the course of treatment. The tumor volume was plotted by treatment group (FIG. 16A), and the individual animals were plotted for group 1 and group 4 (FIG. 16B), for the parental model. The tumor volume was plotted by treatment group (FIG. 16C), and the individual animals were plotted for group 1 and group 4 (FIG. 16D), for the STK11 knockout model.

[5] = Caverage in mice with STK11-deleted MC38 tumors; assay type: in vivo, mouse; settings: doses used in FIG. 12B and 12C
hERG potassium channel = target: T2, hERG potassium channel (Homo sapiens, UniProt Q12809); assay: hERG manual patch-clamp in HEK 293 cells; assay type: cell-based
T2 construct: expressed in transfected cells
Protocol: The effects of Compound I on a cloned human ether-à-go-go-related gene (hERG) potassium channels stably expressed in human embryonic kidney (HEK) 293 cells were measured using manual patch-clamp technique. Briefly, Compound I was soluble at 100 uM in 0.3% DMSO, pH 6.9. A does range-finding (DRF) assay was performed with Compound I at 3. 30, and 100 uM concentrations.

HDAC10 = target: T3, HDAC10 (Homo sapiens, UniProt Q969S8); assay: Cellular NanoBRET assay, HDAC10; assay type: cell-based
T3 construct: expressed in transfected cells

[6] = 30, 100, 300 mg/kg QD for 2 days
[7] = Compound I 75 mg/kg QD alone, second of two values (two experiments, Examples 14 and 15)
[8] = Compound I 75 mg/kg QD, antibodies 10 mg/kg, for Compound I alone the first of two printed values

T2 sequence (Q12809 whole entry): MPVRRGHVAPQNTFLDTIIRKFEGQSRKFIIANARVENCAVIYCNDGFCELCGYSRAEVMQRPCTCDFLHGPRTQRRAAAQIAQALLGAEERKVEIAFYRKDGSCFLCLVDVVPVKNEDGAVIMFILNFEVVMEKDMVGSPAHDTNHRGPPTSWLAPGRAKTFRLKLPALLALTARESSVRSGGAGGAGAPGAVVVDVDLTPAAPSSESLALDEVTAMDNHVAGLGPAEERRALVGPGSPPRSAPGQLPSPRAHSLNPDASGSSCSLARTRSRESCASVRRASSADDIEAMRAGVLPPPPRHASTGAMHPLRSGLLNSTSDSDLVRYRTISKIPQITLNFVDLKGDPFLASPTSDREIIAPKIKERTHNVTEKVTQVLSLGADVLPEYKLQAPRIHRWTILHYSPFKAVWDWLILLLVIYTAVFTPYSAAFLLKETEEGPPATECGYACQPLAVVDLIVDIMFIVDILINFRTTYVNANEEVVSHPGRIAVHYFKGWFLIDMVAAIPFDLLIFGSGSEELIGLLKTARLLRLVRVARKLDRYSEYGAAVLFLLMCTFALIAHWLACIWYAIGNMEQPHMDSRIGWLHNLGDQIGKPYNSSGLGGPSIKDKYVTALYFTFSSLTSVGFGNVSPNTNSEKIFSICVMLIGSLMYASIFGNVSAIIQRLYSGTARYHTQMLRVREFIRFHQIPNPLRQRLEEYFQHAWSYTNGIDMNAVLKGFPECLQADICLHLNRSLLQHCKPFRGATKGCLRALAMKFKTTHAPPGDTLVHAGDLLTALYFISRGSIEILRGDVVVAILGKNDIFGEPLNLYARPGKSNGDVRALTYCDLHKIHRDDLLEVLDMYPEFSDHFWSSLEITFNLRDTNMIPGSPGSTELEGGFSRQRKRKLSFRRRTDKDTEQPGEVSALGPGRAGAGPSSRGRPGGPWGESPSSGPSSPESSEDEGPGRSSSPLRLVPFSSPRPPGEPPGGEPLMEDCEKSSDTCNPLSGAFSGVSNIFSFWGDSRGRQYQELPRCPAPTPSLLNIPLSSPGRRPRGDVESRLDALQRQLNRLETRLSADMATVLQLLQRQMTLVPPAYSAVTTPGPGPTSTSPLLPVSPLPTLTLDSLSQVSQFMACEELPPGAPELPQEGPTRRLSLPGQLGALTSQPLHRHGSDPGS
T3 sequence (Q969S8 whole entry): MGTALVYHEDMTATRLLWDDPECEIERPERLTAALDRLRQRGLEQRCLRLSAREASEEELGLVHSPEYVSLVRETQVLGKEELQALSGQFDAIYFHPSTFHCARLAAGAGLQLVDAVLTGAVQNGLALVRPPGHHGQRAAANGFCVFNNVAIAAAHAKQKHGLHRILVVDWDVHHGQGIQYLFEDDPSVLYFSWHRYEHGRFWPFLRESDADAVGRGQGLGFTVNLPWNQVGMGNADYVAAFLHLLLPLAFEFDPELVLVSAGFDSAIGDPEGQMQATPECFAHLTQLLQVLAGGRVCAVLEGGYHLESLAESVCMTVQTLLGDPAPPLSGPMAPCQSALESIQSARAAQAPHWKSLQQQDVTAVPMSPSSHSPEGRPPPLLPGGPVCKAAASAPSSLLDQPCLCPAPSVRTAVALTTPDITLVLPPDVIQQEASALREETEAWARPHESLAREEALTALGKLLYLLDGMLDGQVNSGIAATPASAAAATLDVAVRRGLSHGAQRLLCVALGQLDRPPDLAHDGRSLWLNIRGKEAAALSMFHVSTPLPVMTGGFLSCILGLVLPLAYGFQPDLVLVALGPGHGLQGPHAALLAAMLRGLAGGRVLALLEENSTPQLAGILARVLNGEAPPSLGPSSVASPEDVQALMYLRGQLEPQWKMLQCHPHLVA
CYP2B6, sequence (P20813 whole entry): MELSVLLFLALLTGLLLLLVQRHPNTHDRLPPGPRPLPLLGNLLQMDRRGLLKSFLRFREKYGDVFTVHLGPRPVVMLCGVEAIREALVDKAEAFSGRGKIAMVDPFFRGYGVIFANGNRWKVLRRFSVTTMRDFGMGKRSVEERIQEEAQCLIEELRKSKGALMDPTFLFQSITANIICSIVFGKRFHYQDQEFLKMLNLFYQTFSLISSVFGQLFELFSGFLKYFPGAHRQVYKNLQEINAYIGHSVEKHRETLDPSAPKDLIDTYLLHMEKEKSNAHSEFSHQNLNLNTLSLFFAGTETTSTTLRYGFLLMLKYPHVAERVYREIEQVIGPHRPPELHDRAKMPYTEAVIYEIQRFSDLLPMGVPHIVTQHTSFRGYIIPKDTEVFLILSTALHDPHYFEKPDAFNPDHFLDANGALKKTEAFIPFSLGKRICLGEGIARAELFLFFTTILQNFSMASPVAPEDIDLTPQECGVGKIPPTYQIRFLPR
T1 sequence (Q13547 whole entry): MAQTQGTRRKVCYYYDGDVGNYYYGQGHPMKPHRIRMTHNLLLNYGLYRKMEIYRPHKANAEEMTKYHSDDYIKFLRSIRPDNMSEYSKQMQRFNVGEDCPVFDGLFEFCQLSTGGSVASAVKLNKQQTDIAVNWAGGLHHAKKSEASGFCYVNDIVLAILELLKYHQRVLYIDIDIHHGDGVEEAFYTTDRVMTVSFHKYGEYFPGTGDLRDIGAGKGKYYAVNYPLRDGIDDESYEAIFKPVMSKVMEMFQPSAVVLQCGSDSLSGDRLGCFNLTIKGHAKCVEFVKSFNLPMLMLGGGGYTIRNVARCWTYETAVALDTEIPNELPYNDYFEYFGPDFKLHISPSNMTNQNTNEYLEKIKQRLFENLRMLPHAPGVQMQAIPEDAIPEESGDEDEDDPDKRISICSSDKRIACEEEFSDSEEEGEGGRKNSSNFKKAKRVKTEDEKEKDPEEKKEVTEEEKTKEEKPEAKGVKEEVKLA

In the case of `C[S@@](=N)(=O)c1ccc(C(=O)Nc2cc(-c3ccc(F)cc3)ccc2N)cc1` [Compound I, (R)—N-(4-amino-4′-fluoro-[1,1′-biphenyl]-3-yl)-4-(S-methylsulfonimidoyl)benzamide], the “number of genes regulated” value (A549 cells) is reported as “regulates the expression of fewer genes”, the half-life (CYP2B6) is reported as > 1 h and the “free unbound exposure in plasma” value ([1]; 30 mg/kg QD for 2 days) is reported as 5470 ng·h/mL. The “free unbound exposure in plasma” value ([1]; 100 mg/kg QD for 2 days) was 17238 ng·h/mL, the “free unbound exposure in plasma” value ([1]; 300 mg/kg QD for 2 days) was 69665 ng·h/mL and the “plasma concentrations versus dose” value [1, 6] was “dose proportional”. For the same compound, the “time of maximal plasma concentrations after the last dose” value [1, 6] was 1 h, the fraction unbound [2] was 0.101 and the “PO bioavailability (% F)” value ([3]; beagle dogs, solution at 3 mg/kg, fasted, 3 mg/kg) was 67%. For the same compound, the half-life ([3]; both sexes, beagle, dog, plasma) was 8.4 h, the clearance ([3]; both sexes, beagle, dog, plasma, intravenous, read-out: CL, p) was 9.6 mL/min/kg and the bioavailability ([3]; both sexes, beagle, dog, plasma, po, 3 mg/kg, beagle dogs, solution at 3 mg/kg, fasted, read-out: PO bioavailability (% F)) was 67.4%. The “selectivity for HDAC1 compared to HDAC3” value (HDAC1) was > 10 fold, the ORR % [4, 7] was 63/63% and the TGI % [4, 7] was 66%. For the same compound, the ORR % [4, 8] was 63/63%, the TGI % [4, 8] was 84% and the “Cavg, u” value [5] was 192 nM. The “Fold of HDAC1 IC50 (Caverage coverage)” value [5] was 3.5 fold, the IC50 (hERG potassium channel; Table 5, read-out: hERG IC50) was > 30 µM and the IC50 (hERG potassium channel; definitive hERG assay, replicates of 3, read-out: hERG potassium current IC50) was 71.1 µM. It also gave an inhibition at 3 µM (hERG potassium channel; human, HEK 293 cells stably expressing hERG, 3 uM, dose range-finding assay, read-out: inhibition of hERG currents) of 15.7%, an inhibition at 30 µM (hERG potassium channel; human, HEK 293 cells stably expressing hERG, 30 uM, dose range-finding assay, read-out: inhibition of hERG currents) of 45.9% and an inhibition at 100 µM (hERG potassium channel; human, HEK 293 cells stably expressing hERG, 100 uM, dose range-finding assay, read-out: inhibition of hERG currents) of 73.6%. For the same compound, the IC50 (HDAC10) was > 30 µM.
